Patent US11117947B2, “Double-acylated GLP-1 derivatives” (Novo Nordisk A/S, priority 2011, dated 2021)
Where two headings read alike, the source gives them in different places. Numbered stars: 1 amine (or outer) side, 2 acyl side, 3 side chain; on linkers, the order of the positions; unused ones are H or OH. Side chains are listed from the residue outwards. Peptide text beside a SMILES is read from it. * marks the point of attachment. Decanoyl(10-(4-HOOC-PhO)) = O=C(O)c1ccc(OCCCCCCCCCC(=O)*)cc1; γGlu = O=C(O)[C@H](CCC(=O)[*:2])N[*:1]; C14 diacid = O=C(O)CCCCCCCCCCCCC(=O)*; AEEA = NCCOCCOCC(=O)O

Biological target: T1, human GLP-1 receptor (Homo sapiens, UniProt P43220)
T1 construct: expressed in transfected cells; membranes
T1 sequence (P43220 24-463): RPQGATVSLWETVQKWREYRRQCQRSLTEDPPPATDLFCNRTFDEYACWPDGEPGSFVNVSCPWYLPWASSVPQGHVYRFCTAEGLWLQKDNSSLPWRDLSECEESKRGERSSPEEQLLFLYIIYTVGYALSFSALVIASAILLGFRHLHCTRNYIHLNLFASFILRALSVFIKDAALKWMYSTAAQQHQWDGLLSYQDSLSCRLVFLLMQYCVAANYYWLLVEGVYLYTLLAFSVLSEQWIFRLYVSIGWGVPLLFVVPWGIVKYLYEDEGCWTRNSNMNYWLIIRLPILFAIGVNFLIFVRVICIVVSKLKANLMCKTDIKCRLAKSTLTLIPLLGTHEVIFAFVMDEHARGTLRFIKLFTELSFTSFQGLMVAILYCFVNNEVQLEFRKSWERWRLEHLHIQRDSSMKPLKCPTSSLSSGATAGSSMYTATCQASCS
Experiment: GLP-1 receptor binding: displacement of 125I-GLP-1 (SPA) at low and high albumin
Procedure: The purpose of this experiment is to investigate the binding to the GLP-1 receptor of the GLP-1 derivatives, and how the binding is potentially influenced by the presence of albumin. This is done in an in vitro experiment as described below.
In order to test the binding of the derivatives to albumin, the assay was performed with a low concentration of albumin (0.001%—corresponding to the residual amount thereof in the tracer), as well as with a high concentration of albumin (2.0% added). A shift in the binding affinity, IC50, is an indication that the peptide in question binds to albumin, and thereby a prediction of a potential protracted pharmacokinetic profile of the peptide in question in animal models.
Species (in vitro): Hamster
Biological End Point: Receptor Binding
A stable transfected cell line and a high expressing clone were selected for screening. The cells were grown at 5% CO2 in DMEM, 10% FCS, 1% Pen/Strep (Penicillin/Streptomycin) and 1.0 mg/ml of the selection marker G418.
The cells (approx. 80% confluence) were washed twice in PBS and harvested with Versene (aqueous solution of the tetrasodium salt of ethylenediaminetetraacetic acid), following which they were separated by centrifugation at 1000 rpm for 5 min. The cells/cell pellet must be kept on ice to the extent possible in the subsequent steps. The cell pellet was homogenised with Ultrathurrax for 20-30 seconds in a suitable amount of Buffer 1 (depending on the amount of cells, but e.g. 10 ml). The homogenate was centrifuged at 20000 rpm for 15 minutes. The pellet was resuspended (homogenised) in 10 ml Buffer 2 and re-centrifuged. This step was repeated once more. The resulting pellet was resuspended in Buffer 2, and the protein concentration was determined. The membranes were stored at minus 80° C.
Buffer 1: 20 mM Na-HEPES+10 mM EDTA, pH 7.4
Buffer 2: 20 mM Na-HEPES+0.1 mM EDTA, pH 7.4
Test compounds, membranes, SPA-particles and [^125I]-GLP-1(7-36)NH2 were diluted in assay buffer. 50 ul (micro liter) HSA (“high albumin” experiment containing 2% HSA), or buffer (“low albumin” experiment containing 0.001% HSA), was added to Optiplate, and 25 ul of test compounds were added. 5-10 ug membrane protein/sample was added (50 ul) corresponding to 0.1-0.2 mg protein/ml (to be preferably optimised for each membrane preparation). SPA-particles (Wheatgerm agglutinin SPA beads, Perkin Elmer, #RPNQ0001) were added in an amount of 0.5 mg/well (50 ul). The incubation was started with [^125I]-GLP-1]-(7-36)NH2 (final concentration 0.06 nM corresponding to 49.880 DPM, 25 ul). The plates were sealed with PlateSealer and incubated for 120 minutes at 30° C. while shaking. The plates were centrifuged (1500 rpm, 10 min) and counted in Topcounter.

[1] = high albumin, 2.0% HSA, read-out: IC50/nM (high HSA)
[2] = low albumin, 0.001% HSA, read-out: IC50/nM (low HSA)

Row | IC50 [1] [nM] | Structure (SMILES) | IC50 [2] [nM]
1 | > 1000 | CC[C@H](C)[C@H](NC(=O)[C@H](Cc1ccccc1)NC(=O)[C@H](CCCCNC(=O)CC[C@H](NC(=O)COCCOCCNC(=O)COCCOCCNC(=O)CCCCCCCCCCCCC(=O)O)C(=O)O)NC(=O)[C@H](CCCNC(=N)N)NC(=O)[C@@H](NC(=O)[C@H](CCCCNC(=O)CC[C@H](NC(=O)COCCOCCNC(=O)COCCOCCNC(=O)CCCCCCCCCCCCC(=O)O)C(=O)O)NC(=O)[C@H](CCC(N)=O)NC(=O)[C@H](CCC(=O)O)NC(=O)[C@H](CCC(=O)O)NC(=O)[C@H](CC(C)C)NC(=O)[C@H](Cc1ccc(O)cc1)NC(=O)[C@H](CO)NC(=O)[C@H](CO)NC(=O)[C@@H](NC(=O)[C@H](CC(=O)O)NC(=O)[C@H](CO)NC(=O)[C@@H](NC(=O)[C@H](Cc1ccccc1)NC(=O)[C@@H](NC(=O)CNC(=O)[C@H](CCC(=O)O)NC(=O)[C@H](C)NC(=O)[C@@H](N)Cc1c[nH]cn1)[C@@H](C)O)[C@@H](C)O)C(C)C)C(C)C)C(=O)N[C@@H](C)C(=O)N[C@@H](Cc1c[nH]c2ccccc12)C(=O)N[C@@H](CC(C)C)C(=O)N[C@H](C(=O)NCC(=O)O)C(C)C [Example 30, N^ε24-[(4S)-4-carboxy-4-[[2-[2-[2-[[2-[2-[2-(13-carboxytridecanoylamino)ethoxy]ethoxy]acetyl]amino]ethoxy]ethoxy]acetyl]amino]butanoyl], N^ε27-[(4S)-4-carboxy-4-[[2-[2-[2-[[2-[2-[2-(13-carboxytridecanoylamino)ethoxy]ethoxy]acetyl]amino]ethoxy]ethoxy]acetyl]amino]butanoyl]-[Glu^22,Lys^24, Val^25, Arg^26, Lys^27,Gly^34]-GLP-1-(7-34)-peptide] (H-HAEGTFTSDVSSYLEEQK([γGlu-AEEA-AEEA-C14 diacid])VRK([γGlu-AEEA-AEEA-C14 diacid])FIAWLVG-OH) | 
2 | > 1000 | CC[C@H](C)[C@H](NC(=O)[C@H](Cc1ccccc1)NC(=O)[C@H](CCCCNC(=O)COCCOCCNC(=O)COCCOCCNC(=O)CC[C@H](NC(=O)CCCCCCCCCCCCC(=O)O)C(=O)O)NC(=O)[C@H](CCCNC(=N)N)NC(=O)[C@@H](NC(=O)[C@H](CCCCNC(=O)COCCOCCNC(=O)COCCOCCNC(=O)CC[C@H](NC(=O)CCCCCCCCCCCCC(=O)O)C(=O)O)NC(=O)[C@H](CCC(N)=O)NC(=O)[C@H](CCC(=O)O)NC(=O)[C@H](CCC(=O)O)NC(=O)[C@H](CC(C)C)NC(=O)[C@H](Cc1ccc(O)cc1)NC(=O)[C@H](CO)NC(=O)[C@H](CO)NC(=O)[C@@H](NC(=O)[C@H](CC(=O)O)NC(=O)[C@H](CO)NC(=O)[C@@H](NC(=O)[C@H](Cc1ccccc1)NC(=O)[C@@H](NC(=O)CNC(=O)[C@H](CCC(=O)O)NC(=O)[C@H](C)NC(=O)[C@@H](N)Cc1c[nH]cn1)[C@@H](C)O)[C@@H](C)O)C(C)C)C(C)C)C(=O)N[C@@H](C)C(=O)N[C@@H](Cc1c[nH]c2ccccc12)C(=O)N[C@@H](CC(C)C)C(=O)N[C@H](C(=O)NCC(=O)O)C(C)C [Example 27, N^ε24-[2-[2-[2-[[2-[2-[2-[[(4S)-4-carboxy-4-(13-carboxytridecanoylamino)butanoyl]amino]ethoxy]ethoxy]acetyl]amino]ethoxy]ethoxy]acetyl], N^ε27-[2-[2-[2-[[2-[2-[2-[[(4S)-4-carboxy-4-(13-carboxytridecanoylamino)butanoyl]amino]ethoxy]ethoxy]acetyl]amino]ethoxy]ethoxy]acetyl]-[Glu^22,Lys^24, Val^25, Arg^26, Lys^27,Gly^34]-GLP-1-(7-34)-peptide] (H-HAEGTFTSDVSSYLEEQK([AEEA-AEEA-γGlu-C14 diacid])VRK([AEEA-AEEA-γGlu-C14 diacid])FIAWLVG-OH) | 
3 |  | CC[C@H](C)[C@H](NC(=O)[C@H](Cc1ccccc1)NC(=O)[C@H](CCCCNC(=O)COCCOCCNC(=O)COCCOCCNC(=O)CC[C@H](NC(=O)CCCCCCCCCOc1ccc(C(=O)O)cc1)C(=O)O)NC(=O)[C@H](CCCNC(=N)N)NC(=O)[C@H](C)NC(=O)[C@H](C)NC(=O)[C@H](CCC(N)=O)NC(=O)[C@H](CCC(=O)O)NC(=O)[C@H](CCC(=O)O)NC(=O)[C@H](CC(C)C)NC(=O)[C@H](Cc1ccc(O)cc1)NC(=O)[C@H](CO)NC(=O)[C@H](CO)NC(=O)[C@@H](NC(=O)[C@H](CC(=O)O)NC(=O)[C@H](CO)NC(=O)[C@@H](NC(=O)[C@H](Cc1ccccc1)NC(=O)[C@@H](NC(=O)CNC(=O)[C@H](CCC(=O)O)NC(=O)[C@H](C)NC(=O)[C@@H](N)Cc1c[nH]cn1)[C@@H](C)O)[C@@H](C)O)C(C)C)C(=O)N[C@@H](C)C(=O)N[C@@H](Cc1c[nH]c2ccccc12)C(=O)N[C@@H](CC(C)C)C(=O)N[C@H](C(=O)N[C@@H](CCCNC(=N)N)C(=O)NCC(=O)N[C@@H](CCCNC(=N)N)C(=O)N[C@@H](CCCCNC(=O)COCCOCCNC(=O)COCCOCCNC(=O)CC[C@H](NC(=O)CCCCCCCCCOc1ccc(C(=O)O)cc1)C(=O)O)C(=O)O)C(C)C [Example 1, N^ε27-[2-[2-[2-[[2-[2-[2-[[(4S)-4-carboxy-4-[10-(4-carboxyphenoxy)decanoylamino]butanoyl]amino]ethoxy]ethoxy]acetyl]amino]ethoxy]ethoxy]acetyl], N^ε37-[2-[2-[2-[[2-[2-[2-[[(4S)-4-carboxy-4-[10-(4-carboxyphenoxy)decanoylamino]butanoyl]amino]ethoxy]ethoxy]acetyl]amino]ethoxy]ethoxy]acetyl]-[Glu^22,Arg^26,Lys^27,Arg^34,Lys^37]-GLP-1-(7-37)-peptide] (H-HAEGTFTSDVSSYLEEQAARK([AEEA-AEEA-γGlu-Decanoyl(10-(4-HOOC-PhO))])FIAWLVRGRK([AEEA-AEEA-γGlu-Decanoyl(10-(4-HOOC-PhO))])-OH; N-terminus and C-terminus assumed) | 0.19

Row | Structure (SMILES) | IC50 [1] [nM] | IC50 [2] [nM]
4 | CC[C@H](C)[C@H](NC(=O)[C@H](Cc1ccccc1)NC(=O)[C@H](CCCCNC(=O)COCCOCCNC(=O)COCCOCCNC(=O)CC[C@H](NC(=O)CCCCCCCCCOc1ccc(C(=O)O)cc1)C(=O)O)NC(=O)[C@H](CCCNC(=N)N)NC(=O)[C@@H](NC(=O)[C@H](CCCCNC(=O)COCCOCCNC(=O)COCCOCCNC(=O)CC[C@H](NC(=O)CCCCCCCCCOc1ccc(C(=O)O)cc1)C(=O)O)NC(=O)[C@H](CCC(N)=O)NC(=O)[C@H](CCC(=O)O)NC(=O)[C@H](CCC(=O)O)NC(=O)[C@H](CC(C)C)NC(=O)[C@H](Cc1ccc(O)cc1)NC(=O)[C@H](CO)NC(=O)[C@H](CO)NC(=O)[C@@H](NC(=O)[C@H](CC(=O)O)NC(=O)[C@H](CO)NC(=O)[C@@H](NC(=O)[C@H](Cc1ccccc1)NC(=O)[C@@H](NC(=O)CNC(=O)[C@H](CCC(=O)O)NC(=O)[C@H](C)NC(=O)[C@@H](N)Cc1c[nH]cn1)[C@@H](C)O)[C@@H](C)O)C(C)C)C(C)C)C(=O)N[C@@H](C)C(=O)N[C@@H](Cc1c[nH]c2ccccc12)C(=O)N[C@@H](CC(C)C)C(=O)N[C@H](C(=O)N[C@@H](CCCNC(=N)N)C(=O)NCC(=O)N[C@@H](CCCNC(=N)N)C(=O)NCC(=O)O)C(C)C [Example 28, N^ε24-[2-[2-[2-[[2-[2-[2-[[(4S)-4-carboxy-4-[10-(4-carboxyphenoxy)decanoylamino]butanoyl]amino]ethoxy]ethoxy]acetyl]amino]ethoxy]ethoxy]acetyl], N^ε27-[2-[2-[2-[[2-[2-[2-[[(4S)-4-carboxy-4-[10-(4-carboxyphenoxy)decanoylamino]butanoyl]amino]ethoxy]ethoxy]acetyl]amino]ethoxy]ethoxy]acetyl]-[Glu^22,Lys^24,Val^25,Arg^26,Lys^27,Arg^34]-GLP-1-(7-37)-peptide] (H-HAEGTFTSDVSSYLEEQK([AEEA-AEEA-γGlu-Decanoyl(10-(4-HOOC-PhO))])VRK([AEEA-AEEA-γGlu-Decanoyl(10-(4-HOOC-PhO))])FIAWLVRGRG-OH; N-terminus and C-terminus assumed) | 29 | 0.2
